In patent publication US7618960B2, “Morpholine type cinnamide compound” (Eisai R&D Management Co., Ltd., priority 2005, dated 2009) one finds IC50 data, which are given here for 21 molecules.

Molecules are shown by their SMILES.

The test system of the first assay is Aβ42 production. As to the kind of experiment: Quantification of Aβ peptide in culture of neurons from rat fetus brain (Aβ ELISA). As to conditions: Neuron, 72 h; rat primary neuronal culture (cerebral cortex, embryonic day 18 Wistar rats); medium collected three days after addition of compound; Aβx-42 ELISA; read-out: Activity for reducing Aβ42 production IC50. The format is cell-based. The method, then:
Quantification of Aβ Peptide in Culture of Neurons from Rat Fetus Brain
(1) Rat Primary Neuronal Culture
Primary neuronal cultures were prepared from the cerebral cortex of embryonic day 18 Wistar rats (Charles River Japan, Yokohama, Japan). Specifically, the embryos were aseptically removed from pregnant rats under ether anesthesia. The brain was isolated from the embryo and immersed in an ice-cold L-15 medium (Invitrogen Corp. Cat #11415-064, Carlsbad, Calif., USA, or SIGMA L1518, for example). The cerebral cortex was collected from the isolated brain under a stereoscopic microscope. The cerebral cortex fragments collected were enzymatically treated in an enzyme solution containing 0.25% trypsin (Invitrogen Corp. Cat #15050-065, Carlsbad, Calif., USA) and 0.01% DNase (Sigma D5025, St. Louis, Mo., USA) at 37° C. for 30 minutes to disperse the cells. Here, the enzymatic reaction was stopped by adding inactivated horse serum to the solution. The enzymatically treated solution was centrifuged at 1,500 rpm for five minutes to remove the supernatant. 5 to 10 ml of a medium was added to the resulting cell mass. Neurobasal medium (Invitrogen Corp. Cat #21103-049, Carlsbad, Calif., USA) supplemented with 2% B27 supplement (Invitrogen Corp. Cat #17504-044, Carlsbad, Calif., USA), 25 μM 2-mercaptoethanol (2-ME, WAKO Cat #139-06861, Osaka, Japan), 0.5 mM L-glutamine (Invitrogen Corp. Cat #25030-081, Carlsbad, Calif., USA), and Antibiotics-Antimycotics (Invitrogen Corp. Cat #15240-062, Carlsbad, Calif., USA) was used as the medium (Neurobasal/B27/2-ME). However, the above Neurobasal medium not supplemented with 2-ME (Neurobasal/B27) was used for the assay. The cells were redispersed by mild pipetting of the cell mass to which the medium was added. The cell dispersion was filtered through a 40-μm nylon mesh (Cell Strainer, Cat #35-2340, Becton Dickinson Labware, Franklin Lakes, N.J., USA) to remove the remaining cell mass, and thus a neuronal cell suspension was obtained. The neuronal cell suspension was diluted with the medium and then plated in a volume of 100 μl/well at an initial cell density of 5×10^5 cells/cm^2 in a 96-well polystyrene culture plate pre-coated with poly-L or D-lysine (Falcon Cat #35-3075, Becton Dickinson Labware, Franklin Lakes, N.J., USA coated with poly-L-lysine using the method shown below, or BIOCOAT™ cell environments Poly-D-lysine cell ware 96-well plate, Cat #35-6461, Becton Dickinson Labware, Franklin Lakes, N.J., USA). Poly-L-lysine coating was carried out as follows. 100 μg/ml of a poly-L-lysine (SIGMA P2636, St. Louis, Mo., USA) solution was aseptically prepared with a 0.15 M borate buffer (pH 8.5). 100 μl/well of the solution was added to the 96-well polystyrene culture plate and incubated at room temperature for one or more hours or at 4° C. overnight or longer. The coated 96-well polystyrene culture plate was washed with sterile water four or more times, and then dried or rinsed with, for example, sterile PBS or medium, and used for cell plating. The plated cells were cultured in the culture plate at 37° C. in 5% […]-95% air for one day. Then, the total amount of the medium was replaced with a fresh Neurobasal™/B27/2-ME medium, and then the cells were cultured for further three days.
The drug was added to the culture plate on Day 4 of culture as follows. The total amount of the medium was removed from the wells, and 180 μl/well of Neurobasal medium not containing 2-ME and containing 2% B-27 (Neurobasal/B27) was added thereto. A solution of the test compound in dimethyl sulfoxide (hereinafter abbreviated as DMSO) was diluted with Neurobasal/B27 so that the initial concentration was at 10-fold of the final concentration. 20 μl/well of the dilution was added to and sufficiently mixed with the medium. The final DMSO concentration was 1% or less. Only DMSO was added to the control group.
The cells were cultured for three days after addition of the compound, and the total amount of the medium was collected. […]
Background: An ELISA detects its analyte on a solid surface through an enzyme-linked reagent.
By IC50 is commonly meant the point on the concentration scale where inhibition reaches its midpoint. Consider `COc1cc(/C=C2\OCCN(Cc3cc(F)c(F)c(F)c3)C2=O)ccc1-n1cnc(C)c1` [Example 1, (Z)-2-[1-[3-methoxy-4-(4-methyl-1H-imidazol-1-yl)phenyl]methylidene]-4-(3,4,5-trifluorobenzyl)morpholin-3-one], for which the IC50 amounted to 0.077 µM.
On the same count and under the same terms, with `COc1cc(/C=C2\OCCN(Cc3ccc(F)c(F)c3F)C2=O)ccc1-n1cnc(C)c1` [Example 2, (Z)-2-[1-[3-methoxy-4-(4-methyl-1H-imidazol-1-yl)phenyl]methylidene]-4-(2,3,4-trifluorobenzyl)morpholin-3-one] the figure was 0.187 µM; with `COc1cc(/C=C2\O[C@@H](C)CN(Cc3cc(F)c(F)c(F)c3)C2=O)ccc1-n1cnc(C)c1` [Example 3, (Z)-(S)-2-[1-[3-methoxy-4-(4-methyl-1H-imidazol-1-yl)phenyl]methylidene]-6-methyl-4-(3,4,5-trifluorobenzyl)morpholin-3-one], 0.041 µM.
Take `COc1cc(/C=C2\O[C@H](C)CN(Cc3cc(F)c(F)c(F)c3)C2=O)ccc1-n1cnc(C)c1` [Example 4, (Z)-(R)-2-[1-[3-methoxy-4-(4-methyl-1H-imidazol-1-yl)phenyl]methylidene]-6-methyl-4-(3,4,5-trifluorobenzyl)morpholin-3-one]: the IC50 was found to be 0.069 µM.
Still for that read-out and setting: with `COc1cc(/C=C2\O[C@@H](C)CN(Cc3ccc(F)c(F)c3F)C2=O)ccc1-n1cnc(C)c1` [Example 5, (Z)-(S)-2-[1-[3-methoxy-4-(4-methyl-1H-imidazol-1-yl)phenyl]methylidene]-6-methyl-4-(2,3,4-trifluorobenzyl)morpholin-3-one] the figure was 0.125 µM; with `COc1cc(/C=C2\O[C@H](C)CN(Cc3ccc(F)c(F)c3F)C2=O)ccc1-n1cnc(C)c1` [Example 6, (Z)-(R)-2-[1-[3-methoxy-4-(4-methyl-1H-imidazol-1-yl)phenyl]methylidene]-6-methyl-4-(2,3,4-trifluorobenzyl)morpholin-3-one], 0.156 µM; with `COc1cc(/C=C2\OC(C)(C)CN([C@@H](C)c3ccc(F)cc3)C2=O)ccc1-n1cnc(C)c1` [Example 7, (Z)-4-[(S)-1-(4-fluorophenyl)ethyl]-2-[1-[3-methoxy-4-(4-methyl-1H-imidazol-1-yl)phenyl]methylidene]-6,6-dimethylmorpholin-3-one], 0.076 µM.
Consider `COc1cc(/C=C2\O[C@H](C)CN([C@@H](C)c3ccc(F)cc3)C2=O)ccc1-n1cnc(C)c1` [Example 8, (Z)-(R)-4-[(S)-1-(4-fluorophenyl)ethyl]-2-[1-[3-methoxy-4-(4-methyl-1H-imidazol-1-yl)phenyl]methylidene]-6-methylmorpholin-3-one], for which the IC50 turned out to be 0.113 µM.
The same measure, in the same setting: then `COc1cc(/C=C2\O[C@@H](C)CN([C@@H](C)c3ccc(F)cc3)C2=O)ccc1-n1cnc(C)c1` [Example 9, (Z)-(S)-4-[(S)-1-(4-fluorophenyl)ethyl]-2-[1-[3-methoxy-4-(4-methyl-1H-imidazol-1-yl)phenyl]methylidene]-6-methylmorpholin-3-one], with 0.06 µM; and `COc1cc(/C=C2\OCCN([C@@H](C)c3cc(F)c(F)c(F)c3)C2=O)ccc1-n1cnc(C)c1` [Example 10, (Z)-2-[1-[3-methoxy-4-(4-methyl-1H-imidazol-1-yl)phenyl]methylidene]-4-[(S)-1-(3,4,5-trifluorophenyl)ethyl]morpholin-3-one], with 0.084 µM; and `COc1cc(/C=C2\OC(C)(C)CN([C@H]3CCOc4ccccc43)C2=O)ccc1-n1cnc(C)c1` [Example 12, (Z)-4-[(S)-chroman-4-yl]-2-[1-[3-methoxy-4-(4-methyl-1H-imidazol-1-yl)phenyl]methylidene]-6,6-dimethylmorpholin-3-one], with 0.101 µM.
On to `COc1cc(/C=C2\O[C@@H](C)CN([C@H]3CCOc4ccccc43)C2=O)ccc1-n1cnc(C)c1` [Example 13, (Z)-(S)-4-[(S)-chroman-4-yl]-2-[1-[3-methoxy-4-(4-methyl-1H-imidazol-1-yl)phenyl]methylidene]-6-methylmorpholin-3-one], for which the IC50 was 0.129 µM.
`COc1cc(/C=C2\O[C@H](C)CN([C@H]3CCOc4ccccc43)C2=O)ccc1-n1cnc(C)c1` [Example 14, (Z)-(R)-4-[(S)-chroman-4-yl]-2-[1-[3-methoxy-4-(4-methyl-1H-imidazol-1-yl)phenyl]methylidene]-6-methylmorpholin-3-one]: the concentration for half-maximal inhibition (IC50) came to 0.146 µM.
Turning to `COc1cc(/C=C2\O[C@@H](C)CN([C@@H](C)c3ccc(Cl)nc3)C2=O)ccc1-n1cnc(C)c1` [Example 18, (Z)-(S)-4-[(S)-1-(6-chloropyridin-3-yl)ethyl]-2-[1-[3-methoxy-4-(4-methyl-1H-imidazol-1-yl)phenyl]methylidene]-6-methylmorpholin-3-one], the IC50 amounted to 0.183 µM.
Regarding `COc1cc(/C=C2\O[C@@H](C)CN([C@H](C)c3ccc(Cl)nc3)C2=O)ccc1-n1cnc(C)c1` [Example 19, (Z)-(S)-4-[(R)-1-(6-chloropyridin-3-yl)ethyl]-2-[1-[3-methoxy-4-(4-methyl-1H-imidazol-1-yl)phenyl]methylidene]-6-methylmorpholin-3-one], the half-maximal inhibitory concentration (IC50) came out at 0.054 µM.
The same measure, in the same setting: with `COc1cc(/C=C2\O[C@@H](C)CN([C@@H](C)c3ccc(Cl)cn3)C2=O)ccc1-n1cnc(C)c1` [Example 20, (Z)-(S)-4-[(S)-1-(5-chloropyridin-2-yl)ethyl]-2-[1-[3-methoxy-4-(4-methyl-1H-imidazol-1-yl)phenyl]methylidene]-6-methylmorpholin-3-one] the figure was 0.082 µM; with `COc1cc(/C=C2\O[C@@H](C)CN([C@H](C)c3ccc(Cl)cn3)C2=O)ccc1-n1cnc(C)c1` [Example 21, (Z)-(S)-4-[(R)-1-(5-chloropyridin-2-yl)ethyl]-2-[1-[3-methoxy-4-(4-methyl-1H-imidazol-1-yl)phenyl]methylidene]-6-methylmorpholin-3-one], 0.195 µM.
The same measure, in the same setting: with `COc1cc(/C=C2\O[C@@H](C)CN([C@@H](C)c3ccc(F)nc3F)C2=O)ccc1-n1cnc(C)c1` [Example 22, (Z)-(S)-4-[(S)-1-(2,6-difluoropyridin-3-yl)ethyl]-2-[1-[3-methoxy-4-(4-methyl-1H-imidazol-1-yl)phenyl]methylidene]-6-methylmorpholin-3-one] the figure was 0.03 µM; with `COc1cc(/C=C2\O[C@@H](C)CN([C@H](C)c3ccc(F)nc3F)C2=O)ccc1-n1cnc(C)c1` [Example 23, (Z)-(S)-4-[(R)-1-(2,6-difluoropyridin-3-yl)ethyl]-2-[1-[3-methoxy-4-(4-methyl-1H-imidazol-1-yl)phenyl]methylidene]-6-methylmorpholin-3-one], 0.13 µM; with `COc1cc(/C=C2\O[C@@H](C)CN([C@@H](C)c3ccnc(F)c3F)C2=O)ccc1-n1cnc(C)c1` [Example 24, (Z)-(S)-4-[(S)-1-(2,3-difluoropyridin-4-yl)ethyl]-2-[1-[3-methoxy-4-(4-methyl-1H-imidazol-1-yl)phenyl]methylidene]-6-methylmorpholin-3-one], 0.036 µM.

Staying with this assay, now noted: rat primary neuronal culture (cerebral cortex, embryonic day 18 Wistar rats); medium collected three days after addition of compound; Aβx-42 ELISA; read-out: Activity for reducing Aβ42 production IC50.
Take `COc1cc(/C=C2\OC[C@H]3CCC[C@@H](c4ccc(F)cc4)N3C2=O)ccc1-n1cnc(C)c1` [Example 16]: the IC50 came to 0.201 µM.
